Assay results: patent US20260107941A1
Values after ≈ are worked out from the molar mass of the structure shown. Values joined by “and” are separate entries in the source; they are usually repeats but may differ in a detail not shown here. Identical values can stand only once.

Columns and labels:
pear fire blight = experiment: Field test, control effect on pear fire blight in fragrant pear orchards; conditions: 3 L sprayed per pear tree, 3 times at 7 d/time
Rhizoctonia solani [1] = experiment: Pot method, control effect on Rhizoctonia solani in cotton seedlings; assay type: in vivo; conditions: 50 mL applied on 1 d, 3 d, 5 d, 7 d, after 10 d
Method: A Rhizoctonia solani suspension (10^7 CFU/mL) was added to a matrix at a ratio of 20:1 (w/w), mixed well, germinated cotton seeds were sown into the matrix, and then 50 mL of the medicinal solution was applied on 1 d, 3 d, 5 d, and 7 d separately. After culturing for 10 d, the incidence rate was investigated and the control effect was calculated.

[2] = test system: Pseudomonas syringae pv. lachrymans; experiment: microbe, parasite or virus in culture; assay type: cell-based; conditions: P. syringae pv. lachrymans
Fusarium oxysporum = experiment: Mycelial growth rate method, toxicity to Fusarium oxysporum; assay type: cell-based; conditions: F. oxysporum, mycelial growth on drug-containing PDA plate, 28° C., 3 d to 7 d
Method: (§1) A PDA solid medium was heated, melted, shaken, and cooled to about 45° C.; a medicinal solution (filtered with a 0.22 μm sterile filter) and the PDA solid medium were mixed, cooled to obtain a drug-containing medium plate with a certain concentration; a phytopathogen cake was placed in the center of the plate, and cultured at 28° C. for 3 d to 7 d; when the hyphae of the phytopathogen in the control group were about to fill the dish, a colony diameter was measured using a cross method, and the mycelial growth inhibition rate and toxicity were calculated. [formula]

Erwinia amylovory = experiment: Turbidity method, toxicity to Erwinia amylovory; assay type: cell-based; conditions: E. amylovory, turbidity in NB medium, shaking culture 30° C., 2 d to 3 d
Acidovorax citrulli = experiment: Turbidity method, toxicity to Acidovorax citrulli; assay type: cell-based; conditions: Paracidovorax citrulli; A. citrulli; turbidity in NB medium, shaking culture 30° C., 2 d to 3 d
Alternaria alternata = experiment: Mycelial growth rate method, toxicity to Alternaria alternata; assay type: cell-based; conditions: A. alternata, mycelial growth on drug-containing PDA plate, 28° C., 3 d to 7 d
Method: as §1

Rhizoctonia solani [3] = experiment: Mycelial growth rate method, toxicity to Rhizoctonia solani; assay type: cell-based; conditions: R. solani, mycelial growth on drug-containing PDA plate, 28° C., 3 d to 7 d
Method: as §1

[4] = test system: Colletotrichum orbiculare; experiment: Mycelial growth rate method, toxicity to Colletotrichum orbiculare; assay type: cell-based; conditions: C. orbiculare, mycelial growth on drug-containing PDA plate, 28° C., 3 d to 7 d
Method: as §1

Cladosporium fulvum = experiment: Mycelial growth rate method, toxicity to Cladosporium fulvum; assay type: cell-based; conditions: Fulvia fulva; C. fulvum; mycelial growth on drug-containing PDA plate, 28° C., 3 d to 7 d
Method: as §1

Xanthomonas oryzae = experiment: microbe, parasite or virus in culture; assay type: cell-based

zhongshengmycin [reference compound]
Control effect (%) 7 d after last dose (pear fire blight; 50 mg/L): 53.06ab % | Control effect (%) 14 d after last dose (pear fire blight; 50 mg/L): 47.36b %

COC(=O)Nc1nc2ccccc2[nH]1 [carbendazim, reference compound]
Control effect (%) (Rhizoctonia solani [1]; 100 mg/L): 49.18d % | Incidence (%) (Rhizoctonia solani [1]; 100 mg/L): 25.83%

CCN(CC)c1ccc(C=O)c(O)c1
EC50 [2]: 114 µg/mL (≈ 592 µM) | EC50 (Fusarium oxysporum): 40.8 µg/mL (≈ 211 µM) | EC50 (Erwinia amylovory): 92.1 µg/mL (≈ 477 µM) | Control effect (%) 7 d after last dose (pear fire blight; 200 mg/L): 40.85c % | Control effect (%) 14 d after last dose (pear fire blight; 200 mg/L): 35.14c % | Control effect (%) 7 d after last dose (pear fire blight; 300 mg/L): 50.37% and 50.37b % | Control effect (%) 14 d after last dose (pear fire blight; 300 mg/L): 44.71% and 44.71b % | Control effect (%) 7 d after last dose (pear fire blight; 400 mg/L): 58.13% and 58.13a % | Control effect (%) 14 d after last dose (pear fire blight; 400 mg/L): 50.81% and 50.81a % | EC50 (Acidovorax citrulli): 108 µg/mL (≈ 561 µM) | EC50 (Alternaria alternata): 200 µg/mL (≈ 1040 µM) | EC50 (Rhizoctonia solani [3]): 14.5 µg/mL (≈ 75 µM) | EC50 [4]: 93.8 µg/mL (≈ 485 µM) | EC50 (Cladosporium fulvum): 113 µg/mL (≈ 583 µM) | EC50 (Xanthomonas oryzae): 136 µg/mL (≈ 706 µM) | Control effect (%) (Rhizoctonia solani [1]; 50 mg/L): 60.66% and 60.66c % | Incidence (%) (Rhizoctonia solani [1]; 50 mg/L): 20.00% | Control effect (%) (Rhizoctonia solani [1]; 100 mg/L): 77.05% and 77.05b % | Incidence (%) (Rhizoctonia solani [1]; 100 mg/L): 11.67% | Control effect (%) (Rhizoctonia solani [1]; 150 mg/L): 86.89% and 86.89a % | Incidence (%) (Rhizoctonia solani [1]; 150 mg/L): 6.67%
